Laboratory results as given in US20100056524A1, “Compound” (priority 2008, published 2010).
Counter-ions that a name gives are not always drawn. Like-named read-outs stand apart in the source and are kept apart here.

How the values were obtained:
Type in all cases: biochemical
[1] = target: T1, EF2K (Homo sapiens, UniProt O00418); assay: EF2K protein kinase assay; settings: for remaining activity at 10 µM: 10 μM compound; for residual kinase activity EF2K: 1 μm compound; for remaining activity at 1 µM: 1 μM compound
T1 construct: All protein kinases were of human origin and encoded full length proteins, unless indicated otherwise; made in house
Text: (§1) All protein kinases were of human origin and encoded full length proteins, unless indicated otherwise. They were either expressed as glutathione S-transferase (GST) fusion proteins in Escherichia Coli or as hexahistidine (His6)-tagged proteins in insect Sf21 cells. GST fusion proteins were purified by affinity chromatography on glutathione-Sepharose, and His6-tagged proteins on nickel/nitriloacetate-agarose. The procedures for expressing some of the protein kinases used herein have been detailed previously.^8,9 The following sections outline the DNA vectors synthesised and the procedures used to express and purifying protein kinases that have not been reported previously.
(§2) All assays (25.5 μl) were carried out at room temperature (21° C.) and were linear with respect to time and enzyme concentration under the conditions used. Assays were performed for 30 min using Multidrop Micro reagent dispensers (Thermo Electron Corporation, Waltham, Mass. 02454, USA) in a 96-well format. The concentration of magnesium acetate in the assays was 10 mM and the [γ-33P] ATP (800 cpm/pmol) was used at 5, 20 or 50 μM as indicated, in order to be at or below the Km for ATP for each enzyme. Protein kinases assayed at 5 μM ATP were: —ERK1, ERK8, PKBα, MARK3, Aurora C. Protein kinases assayed at 20 μM ATP were: —JNK1, PDK1, CHK1, CHK2, CDK2 and Aurora B. Protein kinases assayed at 50 μM ATP were: —MNK2, IKKepsilon and TBK1.
(§3) The assays were initiated with MgATP, stopped by addition of 5 μl of 0.5 M orthophosphoric acid and spotted on to P81 filterplates using a unifilter harvester (PerkinElmer, Boston, Mass. 02118, USA). The IC50 values of inhibitors were determined after carrying out assays at 10 different concentrations of each compound.
(§4) Unless stated otherwise, enzymes were diluted in 50 mM Tris/HCl pH 7.5, 0.1 mM EGTA, 1 mg/ml BSA, 0.1% (v/v) 2-mercaptoethanol and assayed in 50 mM Tris/HCl pH 7.5, 0.1 mM EGTA, 0.1% (v/v) 2-mercaptoethanol.

[2] = target: T2, TBK1 (Homo sapiens, UniProt Q9UHD2); assay: TBK1 protein kinase assay ([γ-33P]ATP, P81 filterplates)
T2 construct: All protein kinases were of human origin and encoded full length proteins, unless indicated otherwise; His6; made in house; host or cells: insect Sf21 cells
T2 sequence (Q9UHD2 1-729): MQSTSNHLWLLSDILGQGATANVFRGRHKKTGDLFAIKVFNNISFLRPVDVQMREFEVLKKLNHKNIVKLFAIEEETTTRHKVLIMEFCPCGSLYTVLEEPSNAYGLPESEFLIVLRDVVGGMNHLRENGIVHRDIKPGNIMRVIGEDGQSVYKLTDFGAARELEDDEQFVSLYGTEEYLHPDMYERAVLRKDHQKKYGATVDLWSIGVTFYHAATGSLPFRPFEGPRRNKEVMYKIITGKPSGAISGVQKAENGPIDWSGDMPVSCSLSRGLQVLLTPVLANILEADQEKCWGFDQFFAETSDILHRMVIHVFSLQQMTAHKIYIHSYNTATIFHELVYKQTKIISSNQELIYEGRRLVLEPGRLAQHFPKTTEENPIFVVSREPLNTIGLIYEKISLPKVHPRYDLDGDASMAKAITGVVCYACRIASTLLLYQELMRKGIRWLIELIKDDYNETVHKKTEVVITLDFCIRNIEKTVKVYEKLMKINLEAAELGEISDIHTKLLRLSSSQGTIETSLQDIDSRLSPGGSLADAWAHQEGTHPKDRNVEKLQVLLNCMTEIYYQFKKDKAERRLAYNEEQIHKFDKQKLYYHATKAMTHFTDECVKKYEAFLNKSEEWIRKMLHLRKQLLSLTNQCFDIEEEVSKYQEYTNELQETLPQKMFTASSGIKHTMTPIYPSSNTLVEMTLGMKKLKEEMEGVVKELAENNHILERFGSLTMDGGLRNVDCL
Method in brief: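 Human TBK1 assayed for 30 min with peptide substrate (300 μM), 50 μM [γ-33P]ATP and 10 mM magnesium acetate in 50 mM Tris/HCl pH 7.5, 0.1 mM EGTA, 0.1% 2-mercaptoethanol. Stopped with orthophosphoric acid and counted on P81 filters. IC50 from 10 compound concentrations.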

[3] = target: T3, CHK2 (Homo sapiens, UniProt O96017); assay: CHK2 protein kinase assay; settings: for remaining activity at 10 µM: 10 μM compound; for residual kinase activity CHK2: 1 μm compound; for remaining activity at 1 µM: 1 μM compound
T3 construct: The following proteins were expressed in E. coli: —CHK2[5-543]; GST; made in house; host or cells: E. coli
T3 sequence (O96017 5-543): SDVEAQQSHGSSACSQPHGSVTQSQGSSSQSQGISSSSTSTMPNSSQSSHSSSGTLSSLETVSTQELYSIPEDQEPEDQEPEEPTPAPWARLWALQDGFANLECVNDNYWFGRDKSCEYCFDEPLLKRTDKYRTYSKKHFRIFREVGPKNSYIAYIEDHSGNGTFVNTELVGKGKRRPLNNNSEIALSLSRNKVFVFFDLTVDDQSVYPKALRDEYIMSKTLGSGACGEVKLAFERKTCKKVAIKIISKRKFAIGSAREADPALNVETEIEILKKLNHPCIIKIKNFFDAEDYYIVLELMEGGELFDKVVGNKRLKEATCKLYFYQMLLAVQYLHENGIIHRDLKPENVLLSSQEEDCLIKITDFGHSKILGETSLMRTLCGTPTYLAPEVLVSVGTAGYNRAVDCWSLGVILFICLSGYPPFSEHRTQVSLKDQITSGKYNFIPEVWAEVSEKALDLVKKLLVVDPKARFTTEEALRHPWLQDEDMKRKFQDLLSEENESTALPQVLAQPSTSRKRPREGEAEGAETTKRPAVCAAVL
Text: as §1
The following proteins were expressed in E. coli: —CHK2[5-543], cyclin-dependent protein kinase 2 (CDK2), MAP kinase-interacting kinase 2 (MNK2), extra-cellular signal-regulated kinase 1 (ERK1).
as §2, §3, §4

[4] = read-out: residual kinase activity EF2K
[5] = read-out: residual kinase activity CHK2
[6] = EF2K, read-out: residual kinase activity
[7] = 50 μM ATP, read-out: Potency (TBK1 IC50 potency score)
[8] = Table 2, 50 μM ATP, read-out: TBK1 IC50
[9] = CHK2, 20 μM ATP, read-out: residual kinase activity

SMILES | remaining activity at 10 µM [1, 4] [%] | residual kinase activity EF2K [1] [%] | IC50 ([2]; read-out: TBK1 IC50) [nM] | remaining activity at 10 µM [3, 5] [%] | residual kinase activity CHK2 [3] [%] | remaining activity at 1 µM [1, 6] [%] | remaining activity at 10 µM [1, 6] [%] | IC50 [2, 7] [nM] | IC50 [2, 8] [nM] | IC50 ([2]; Table 5, 50 μM ATP, read-out: TBK1 IC50) [nM] | fold more active against TBK1 than Compound B or Compound C ([2]; from TBK1 IC50 values of Table 5) [fold] | remaining activity at 1 µM [3, 9] [%] | remaining activity at 10 µM [3, 9] [%]
O=C(NCCCNc1nc(Nc2cccc(F)c2)ncc1Br)C1CCC1 [Compound A, cyclobutanecarboxylic acid {3-[5-bromo-2-(3-fluoro-phenylamino)-pyrimidin-4-ylamino]-propyl}-amide, reference compound] | 88 | 96 | 2 | 12 | 13 |  |  |  |  |  |  |  | 
O=C(NCCCNc1nc(Nc2cccc(F)c2)ncc1C1CC1)C1CCC1 [Example 23, Cyclobutanecarboxylic acid {3-[5-cyclopropyl-2-(3-fluoro-phenylamino)-pyrimidin-4-ylamino]-propyl}-amide] | 125 | 105 | 4 | 11 | 50 | 105 | 125 | < 100 | 4 | 4 | > 250 | 50 | 11
O=C(NCCCNc1nc(Nc2cccc(N3CCCC3=O)c2)ncc1C1CC1)c1cccs1 [Example 47, Thiophene-2-carboxylic acid (3-{5-cyclopropyl-2-[3-(2-oxo-pyrrolidin-1-yl)-phenylamino]-pyrimidin-4-ylamino}-propyl)-amide. Hydrochloride salt] |  |  |  |  |  | 105 | 104 |  |  |  |  | 71 | 28
O=C(NCCCNc1nc(Nc2cccnc2)ncc1C1CC1)c1cccs1 [Example 50, Thiophene-2-carboxylic acid {3-[5-cyclopropyl-2-(pyridin-3-ylamino)-pyrimidin-4-ylamino]-propyl}-amide] |  |  |  |  |  | 108 | 101 | 100 to 1000 | 108 |  |  | 52 | 16
